Data: article PMC6797648 (Targeted Oncology, 2019)
“And” between values parts separate entries of the source, which are not always exact repeats. Identical values can stand only once.

Assays:
PIK3CD/PIK3R1 = PIK3CD/PIK3R1 (Homo sapiens, UniProt O00329); assay: Purified enzyme-binding kinetics
[1] = Plasma and tissue distribution in A20 syngeneic model; assay type: in vivo, BALB/c mice; conditions: for Tumor concentration, times higher than plasma concentration: 4 h after the last dose
[2] = Blood to plasma ratio in human whole blood; assay type: in vitro ADME; conditions: from the human B:P of 1.4
[3] = Single-dose oral and IV pharmacokinetics in beagle dogs; assay type: in vivo, beagle dog
[4] = Allometric scaling of VSS to a hypothetical 60-kg human
[5] = healthy volunteers, oral; cited from earlier work
[6] = system: peripheral blood basophils; conditions: healthy volunteers, oral administration, CD63 expression following ex vivo stimulation; cited from earlier work
PI3Kδ = conditions: read-out: IC50, inhibition of PI3Kδ in cellular assays; cited from earlier work
purified PI3Kδ enzyme = conditions: read-out: IC50, inhibition of purified PI3Kδ enzyme; cited from earlier work
Caco-2 cell monolayer = assay: Caco-2 permeability and percent recovery
[7] = Caco-2 permeability and percent recovery; conditions: human, Caco-2, pH 7.4
[8] = 50 mg/kg twice daily for 4 days
[9] = ME-401 versus idelalisib, in vitro
[10] = 1 µM, Caco-2, apical to basolateral
[11] = 1 µM, Caco-2, basolateral to apical

PIK3CD/PIK3R1, sequence (O00329 whole entry): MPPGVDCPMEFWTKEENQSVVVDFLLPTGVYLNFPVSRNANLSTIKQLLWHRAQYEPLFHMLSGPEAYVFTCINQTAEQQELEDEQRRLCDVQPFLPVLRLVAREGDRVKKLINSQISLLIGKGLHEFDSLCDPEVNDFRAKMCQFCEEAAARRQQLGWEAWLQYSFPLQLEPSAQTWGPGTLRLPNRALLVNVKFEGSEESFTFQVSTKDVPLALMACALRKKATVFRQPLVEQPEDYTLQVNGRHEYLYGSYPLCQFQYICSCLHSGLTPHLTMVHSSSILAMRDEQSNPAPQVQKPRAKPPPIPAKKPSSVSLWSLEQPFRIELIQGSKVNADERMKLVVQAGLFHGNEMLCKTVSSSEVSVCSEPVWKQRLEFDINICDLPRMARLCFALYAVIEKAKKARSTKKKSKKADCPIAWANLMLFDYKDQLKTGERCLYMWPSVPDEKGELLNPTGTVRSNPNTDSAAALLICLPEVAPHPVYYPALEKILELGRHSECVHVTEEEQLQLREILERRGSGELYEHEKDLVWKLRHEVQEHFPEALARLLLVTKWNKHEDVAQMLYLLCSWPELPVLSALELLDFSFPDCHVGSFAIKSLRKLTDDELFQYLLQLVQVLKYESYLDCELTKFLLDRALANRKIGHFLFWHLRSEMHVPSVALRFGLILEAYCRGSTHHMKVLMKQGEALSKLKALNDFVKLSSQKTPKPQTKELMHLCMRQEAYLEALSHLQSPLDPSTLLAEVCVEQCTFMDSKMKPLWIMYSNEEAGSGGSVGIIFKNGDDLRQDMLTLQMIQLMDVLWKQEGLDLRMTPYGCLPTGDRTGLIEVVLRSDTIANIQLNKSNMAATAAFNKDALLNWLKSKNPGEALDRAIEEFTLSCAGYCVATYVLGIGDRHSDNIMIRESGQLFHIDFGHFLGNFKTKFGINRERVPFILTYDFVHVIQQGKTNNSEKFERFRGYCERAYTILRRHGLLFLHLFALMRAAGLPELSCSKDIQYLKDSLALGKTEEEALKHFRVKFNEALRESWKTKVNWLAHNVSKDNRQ
PIK3CD/PIK3R1, sequence (P27986 whole entry partner): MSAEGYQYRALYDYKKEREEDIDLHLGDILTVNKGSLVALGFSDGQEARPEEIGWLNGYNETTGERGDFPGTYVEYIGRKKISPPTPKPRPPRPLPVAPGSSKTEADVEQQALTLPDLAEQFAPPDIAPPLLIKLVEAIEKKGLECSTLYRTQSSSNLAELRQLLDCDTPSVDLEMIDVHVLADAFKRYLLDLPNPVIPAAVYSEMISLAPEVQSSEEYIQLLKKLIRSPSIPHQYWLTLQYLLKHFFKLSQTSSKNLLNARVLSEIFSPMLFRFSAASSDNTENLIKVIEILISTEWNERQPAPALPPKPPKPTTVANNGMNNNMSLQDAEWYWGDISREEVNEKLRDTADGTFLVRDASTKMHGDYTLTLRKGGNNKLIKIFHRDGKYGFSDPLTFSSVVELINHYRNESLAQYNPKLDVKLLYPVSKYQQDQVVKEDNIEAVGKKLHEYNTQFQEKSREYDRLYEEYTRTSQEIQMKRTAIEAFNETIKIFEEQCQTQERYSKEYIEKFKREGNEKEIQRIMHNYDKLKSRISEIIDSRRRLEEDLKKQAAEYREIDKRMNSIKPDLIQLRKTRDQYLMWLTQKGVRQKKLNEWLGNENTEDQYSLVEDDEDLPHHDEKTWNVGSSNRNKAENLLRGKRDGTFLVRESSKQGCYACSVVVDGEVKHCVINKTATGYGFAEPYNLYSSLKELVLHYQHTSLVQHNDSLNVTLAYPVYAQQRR

CC[C@H](Nc1ncnc2[nH]cnc12)c1nc2cccc(F)c2c(=O)n1-c1ccccc1 [Idelalisib, idelalisib, reference compound]
Dissociation rate, times higher than ME-401 (PIK3CD/PIK3R1; idelalisib versus ME-401): ~ 100 times | Tumor concentration, times higher than plasma concentration [1, 8]: approximately three times higher

CN1CCC(c2ccccc2CC(C)(C)Nc2nc(N3CCOCC3)nc(-n3c(C(F)F)nc4ccccc43)n2)CC1 [ME-401]
Drug in the blood that distributes into blood cells at equilibrium [2]: approximately 60% | Residence time (PIK3CD/PIK3R1; 22 °C): ~5 h and 5.3 h | kd dissociation rate constant (PIK3CD/PIK3R1; 22 °C, 1:1 binding model): 5.2e-05 s⁻¹ | Binds more tightly than idelalisib (PIK3CD/PIK3R1; [9]): ~ 37 times | Remains on-target longer than idelalisib (PIK3CD/PIK3R1; [9]): ~ 138 times | Kd (PIK3CD/PIK3R1; read-out: KD equilibrium dissociation constant, 22 °C, 1:1 binding model): 0.03 nM and 0.0303 nM | AUCinf ([3]; dogs, 2 mg/kg IV): 1.247 µg·h/mL | Bioavailability ([3]; dogs, oral 2 mg/kg versus IV 2 mg/kg): 79% | AUCinf ([3]; fasted dogs, 2 mg/kg orally): 0.98 µg·h/mL | Extrapolated human VSS, times higher than blood volume [4]: approximately 100 times | Extrapolated human VSS, times higher than whole body volume [4]: approximately 15 times | Extrapolated human VSS, times larger than that reported for idelalisib [4]: ~ 28 times | Tumor concentration, times higher than plasma concentration [1, 8]: approximately 20 times | Brain tissue concentration as percent of plasma values ([1]; 75 mg/kg twice daily for 4 days, 4 and 24 h after the last dose): approximately 30% | Tumor concentration, times higher than plasma concentration ([1]; 75 mg/kg twice daily for 4 days): approximately 30 times | Decrease of tumor levels at 24 h compared with levels at 4 h ([1]; oral administration, A20 syngeneic mouse model): 30–50% | Half-life [5]: 28 h | EC90 plasma concentration, inhibition of basophil activation [6]: 5 ng/mL | IC50 (PI3Kδ): 0.6 nM | IC50 (purified PI3Kδ enzyme): 5 nM | Retained in the monolayer (Caco-2 cell monolayer; 1 µM, Caco-2): ~ 50% | Recovery, AB, cell lysate included (Caco-2 cell monolayer; [10]): 79.3 ± 5.5% | Recovery, AB, only the experimental solutions measured (Caco-2 cell monolayer; [10]): 30.3 ± 6.7% | Recovery, BA, cell lysate included (Caco-2 cell monolayer; [11]): 85 ± 8.5% | Recovery, BA, only the experimental solutions measured (Caco-2 cell monolayer; [11]): 69 ± 5.6% | AB Papp (Caco-2 cell monolayer; apical to basolateral, Caco-2, pH 7.4, 2 h, 37 °C): 3.67 ± 1.37 × 10^−6 cm/s | BA Papp (Caco-2 cell monolayer; basolateral to apical, Caco-2, pH 7.4, 2 h, 37 °C): 7.69 ± 1.39 × 10^−6 cm/s

CC(C)NCC(O)COc1cccc2ccccc12 (stereo not drawn) [propranolol, reference compound]
Papp at 2 h, 10 uM [7]: > 300 nm/s
